Peptide text beside a SMILES is read from it.
Key:
SD male rats = test: Maintenance of skin elasticity in rat (UV-B exposed hind limb pads; cutometer and SEM linearity of elastic fibers); format: in vivo; parameters: Ue value / Uf value: unit not given here; details: for Ue value / Uf value: 10 μL on pad after UV-B, three times a week, six weeks, cutometer 500 hPa; for Ue value: solvent only 0.02125, no treatment 0.03294; for Uf value: solvent only 0.03333, no treatment 0.04833; for Linearity: linearity of elastic fibers A/(B×C) from SEM micrographs of rat pad, linear = 1, solvent only 0.5133, no treatment 0.7345
Description: Maintenance of Skin Elasticity in Rat
Three-week-old SD male rats were classified into three groups (five rats per group): a group of rats to which an 80% ethanol solution containing a test compound was applied to pads of hind limbs; a group of rats to which a solvent (80% ethanol) was applied to the pads; and a group of non-treated rats. Each pad was exposed to UV-B rays (less than 1 MED), and then the test compound-containing solution or the solvent was applied to the pad in an amount of 10 μL. The above procedure was carried out three times a week (every other day of the week days) for six weeks.
Skin elasticity was determined using a cutometer (model: SES575, product of Courage Kazaka) as follows. The skin of the pad was subjected to suction at 500 hPa for three seconds, and then released for three seconds. The displacement over six seconds was measured, to thereby obtain Ue and Uf values. The measurement was repeated five times for each pad.
The linearity of elastic fibers was analyzed according to the method of Imokawa et al. (J. Invest. Dermatol., 105, 254–258(1995)) through image analysis of an SEM micrograph. Specifically, samples for scanning electron microscopy (SEM) were prepared by fixing the pad of a rat with Mercox (product of Dainippon Ink and Chemicals, Inc.) under reflux, followed by digestion with formic acid. From SEM micrographs (×1000) of each of the samples, ten typical micrographs were selected and enlarged copies were made. Each of the enlarged micrographs was divided into 16 uniform regions. From each of the regions, any one of the elastic fibers was selected and traced on a transparent film with a line having a fixed width (width: 8 pixels). When the area surrounded by the line tracing the elastic fiber is called A, and the longitudinal length and lateral length of the minimum rectangle surrounding the trace are called B and C, respectively, the linearity of the elastic fiber is represented by A/(B×C). For example, when the trace of the elastic fiber is linear, the linearity becomes 1.

hairless mouse (HR/ICR) = test: Suppression of wrinkle formation in hairless mouse (UV-B exposure, topical application); details: 100 μL on back after daily UV-B, 20 weeks, visual rating 0 (no wrinkle) to 4 (deep wrinkles), control 3.06 ± 0.13
Description: Immediately after the exposure, an 80% ethanol solution (100 μL) containing a 0.1% test compound was applied to the back. The above procedure was carried out daily for 20 weeks. […] In the control group, only 80% ethanol was applied to the back of each mouse during the test. After the test, wrinkle formation was visually observed, and the degree of wrinkle formation was evaluated against the following ratings (wrinkle index).
1: A few shallow wrinkles were formed.
2: A slight amount of wrinkles was formed.
3: Some wrinkles were formed.
4: Deep wrinkles were formed.

C3H mice = test: Hair growth suppression in mouse (shaved back, topical application); format: in vivo; details: 100 μL twice a day on shaved back, area of hair regrowth after three weeks relative to control; for Hair-growth suppression ratio: 1% in 80% ethanol; for response vs control in vivo at 0.1 %: Mus musculus, topical, 504 h, 0.1% in 80% ethanol, read-out: Hair-growth suppression ratio
Description: Hair Growth Suppression in Mouse
The hair on a portion of the backs (size: 2 cm×4 cm) of groups of six-week-old C3H mice, each group consisting of five mice, was carefully shaved so as not to injure the skin using an electric clipper and electric shaver. To the thus-shaved portion, a sample was applied in an amount of 100 μL twice a day for four weeks. Test compounds were dissolved in a solvent (80% ethanol) to attain the concentrations shown in Table 3, to thereby prepare samples. In the control group, only the solvent was applied to the shaved portion. After three weeks, in order to observe hair regrowth, the shaved portion was photographed at a certain magnification, and the ratio of the area of hair regrowth (i.e., the ratio of the area of hair regrowth to that of the shaved area) was compared with that of the control group using an image analyzer. The hair growth suppression ratio (%) was represented by a relative value when the ratio of the area of the hair regrowth in the control group was taken as 100.

[1] = 1% test compound in 80% ethanol
[2] = 0.1% test compound in 80% ethanol

| SMILES | Ue value (SD male rats; 1% in 80% ethanol) | Uf value (SD male rats; 1% in 80% ethanol) | Linearity (SD male rats; 1%) | Wrinkle Index (hairless mouse (HR/ICR); [1]) | Hair-growth suppression ratio (C3H mice) | Ue value (SD male rats; 0.1% in 80% ethanol) | Uf value (SD male rats; 0.1% in 80% ethanol) | Linearity (SD male rats; 0.1%) | Wrinkle Index (hairless mouse (HR/ICR); [2]) | response vs control in vivo at 0.1 % (C3H mice) |
| --- | --- | --- | --- | --- | --- | --- | --- | --- | --- | --- |
| N[C@@H](Cc1ccccc1)C(=O)NCCC(=O)O [Compound 12, Phe-β-Ala] | 0.03326 ± 0.01267 | 0.04572 ± 0.01862 | 0.7197 ± 0.0321 | 1.98 ± 0.20 | 90.4% | – | – | – | – | – |
| CN(C)[C@@H](Cc1ccccc1)C(=O)NCCC(=O)O [Compound 7] | – | – | – | – | – | 0.02623 ± 0.00874 | 0.0412 ± 0.00258 | 0.6423 ± 0.0433 | 2.34 ± 0.10 | 69.6% |
| NC(Cc1ccccc1)C(=O)NCCS(=O)(=O)O (stereo not drawn) [Compound 17, Phe-Tau] | 0.02894 ± 0.0114 | 0.04369 ± 0.00872 | 0.6913 ± 0.0341 | 1.99 ± 0.12 | 79.5% | – | – | – | – | – |
| CC(=O)N[C@@H](Cc1ccccc1)C(=O)NCCC(=O)O [Compound 6] | – | – | – | – | – | 0.02433 ± 0.00921 | 0.03913 ± 0.00924 | 0.6078 ± 0.0195 | 2.57 ± 0.20 | 58.3% |
| O=C(O)CCNC(=O)[C@H](Cc1ccccc1)NCC(=O)O [Compound 1, N-(carboxymethyl)phenylalanyl-β-alanine] | – | – | – | – | – | 0.03153 ± 0.00523 | 0.04711 ± 0.00213 | 0.7221 ± 0.0299 | 1.25 ± 0.11 | 82.4% |
| O=C(O)CCCNC(=O)[C@H](Cc1ccccc1)NCC(=O)O [Compound 2] | – | – | – | – | – | – | – | – | 2.01 ± 0.14 | 73.3% |
| N[C@@H](Cc1ccccc1)C(=O)N[C@@H](CC(=O)O)C(=O)O [Compound 16, Phe-Asp] (H-Phe-Asp-OH) | – | – | – | 2.50 ± 0.15 | 75.2% | – | – | – | – | – |
| N[C@@H](Cc1ccccc1)C(=O)N[C@@H](Cc1ccccc1)C(=O)O [Compound 13, Phe-Phe] (H-Phe-Phe-OH) | – | – | – | 2.64 ± 0.16 | 78.5% | – | – | – | – | – |
| CC(C)C[C@H](NC(=O)[C@@H](N)Cc1ccccc1)C(=O)O [Compound 14, Phe-Leu] (H-Phe-Leu-OH) | – | – | – | 2.82 ± 0.22 | 70.9% | – | – | – | – | – |
| O=C(O)CN[C@@H](Cc1ccccc1)C(=O)N[C@@H](CC(=O)O)C(=O)O [Compound 5] | – | – | – | – | – | 0.02694 ± 0.00157 | 0.04285 ± 0.00271 | 0.6652 ± 0.0239 | 2.21 ± 0.14 | 71% |
| N[C@@H](Cc1ccccc1)C(=O)NCC(=O)O [Compound 11, Phe-Gly] (H-Phe-Gly-OH) | – | – | – | 2.82 ± 0.18 | 32.9% | – | – | – | – | – |
| CCCN[C@@H](Cc1ccccc1)C(=O)NCCC(=O)O [Compound 8] | – | – | – | – | – | 0.02708 ± 0.00119 | 0.0427 ± 0.00657 | 0.6976 ± 0.0422 | 2.03 ± 0.09 | 77.8% |
| C[C@H](NC(=O)[C@H](Cc1ccccc1)NCC(=O)O)C(=O)O [Compound 4] | – | – | – | – | – | 0.03009 ± 0.00274 | 0.04533 ± 0.00971 | 0.7153 ± 0.0329 | 1.75 ± 0.12 | 80.5% |
| CC(C)C[C@H](NCC(=O)O)C(=O)NCCC(=O)O [Compound 9] | – | – | – | – | – | 0.02793 ± 0.00697 | 0.04295 ± 0.00836 | 0.6892 ± 0.0157 | 2.11 ± 0.11 | 77.1% |
| CC(C)C[C@H](NC(=O)[C@H](Cc1ccccc1)NCC(=O)O)C(=O)O [Compound 3] | – | – | – | – | – | 0.02985 ± 0.01021 | 0.04323 ± 0.01722 | 0.7013 ± 0.06551 | 1.82 ± 0.09 | 72.3% |
